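Protocol summary: plate cells (96-well), add compound at 5 concentrations, incubate 48 h, interpolate endpoints linearly. GI50 marks 50% less growth. TGI marks complete inhibition of growth.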
Assays:
Experiment in all cases: inhibition of tumour cell growth, NCI panel, 48 h
[1] = test system: 786-0 renal
[2] = test system: A498 renal
[3] = test system: A549 NSCLC
[4] = test system: ACHN renal
[5] = test system: BT-549 breast
[6] = test system: CAKI-1 renal
[7] = test system: CCRF-CEM leukemia
[8] = test system: COLO 205 colon
[9] = test system: DU-145 prostate
[10] = test system: HCC-2998 colon
[11] = test system: HCT-116 colon
[12] = test system: HCT-15 colon
[13] = test system: HL-60(TB) leukemia
[14] = test system: HOP-62 NSCLC
[15] = test system: HOP-92 NSCLC
[16] = test system: HS 578T breast
[17] = test system: HT29 colon
[18] = test system: IGROV1 ovarian
[19] = test system: K-562 leukemia
[20] = test system: KM12 colon
[21] = test system: LOX IMVI melanoma
[22] = test system: M14 melanoma
[23] = test system: MALME-3M melanoma
[24] = test system: MCF7 breast
[25] = test system: MDA-MB-231 breast
[26] = test system: MDA-MB-435
[27] = test system: MDA-MB-468 breast
[28] = test system: MOLT-4 leukemia
[29] = test system: NCI-H226 lung
[30] = test system: NCI-H23 lung
[31] = test system: NCI-H460 lung
[32] = test system: NCI-H522 lung
[33] = test system: OVCAR-3 ovarian
[34] = test system: OVCAR-4 ovarian
[35] = test system: OVCAR-5 ovarian
[36] = test system: OVCAR-8 ovarian
[37] = test system: PC-3 prostate
[38] = test system: RPMI-8226 leukemia
[39] = test system: RXF 393 renal
[40] = test system: SF-268 CNS
[41] = test system: SF-295 CNS
[42] = test system: SF-539 CNS
[43] = test system: SK-MEL-2 melanoma
[44] = test system: SK-MEL-28 melanoma
[45] = test system: SK-MEL-5 melanoma
[46] = test system: SK-OV-3 ovarian
[47] = test system: SN12C renal
[48] = test system: SNB-19 CNS
[49] = test system: SNB-75 CNS
[50] = test system: SW-620 colon
[51] = test system: T-47D breast
[52] = test system: TK-10 renal
[53] = test system: U251 CNS
[54] = test system: UACC-257 melanoma
[55] = test system: UACC-62 melanoma
[56] = test system: UO-31 renal
[57] = test system: EKVX NSCLC
[58] = test system: NCI/ADR-RES ovarian

Nc1cccnc1/C=N/NC(=S)NCCNC(=O)c1ccc(-n2nc(-c3ccccc3O)nc2-c2ccccc2O)cc1
GI50 [1]: 0.79 µM
TGI [1]: 3.73 µM
GI50 [2]: 29.7 µM
TGI [2]: > 100 µM
GI50 [3]: 1.23 µM
TGI [3]: > 23.8 µM
GI50 [4]: 1.21 µM
TGI [4]: 18.5 µM
GI50 [5]: 0.374 µM
TGI [5]: 2.83 µM
GI50 [6]: 1.24 µM
TGI [6]: > 20.9 µM
GI50 [7]: 0.186 µM
TGI [7]: 1.21 µM
GI50 [8]: 0.329 µM
TGI [8]: 11.7 µM
GI50 [9]: 1.6 µM
TGI [9]: > 100 µM
GI50 [10]: 0.533 µM
TGI [10]: 8.16 µM
GI50 [11]: 0.305 µM
TGI [11]: 6.67 µM
GI50 [12]: 1.98 µM
TGI [12]: 11.7 µM
GI50 [13]: 0.261 µM
TGI [13]: 0.901 µM
GI50 [14]: 0.487 µM
TGI [14]: 5.46 µM
GI50 [15]: 0.283 µM
TGI [15]: 5.16 µM
GI50 [16]: 0.232 µM
TGI [16]: > 100 µM
GI50 [17]: 0.472 µM
TGI [17]: 2.72 µM
GI50 [18]: 0.355 µM
TGI [18]: 11.6 µM
GI50 [19]: 0.115 µM
TGI [19]: > 100 µM
GI50 [20]: 0.48 µM
TGI [20]: 6.53 µM
GI50 [21]: 0.331 µM
TGI [21]: 1.88 µM
GI50 [22]: 0.425 µM
TGI [22]: 2.47 µM
GI50 [23]: 0.628 µM
TGI [23]: 8.94 µM
GI50 [24]: 0.189 µM
TGI [24]: 4.9 µM
GI50 [25]: 0.471 µM
TGI [25]: 14.9 µM
GI50 [26]: 0.561 µM
TGI [26]: > 100 µM
GI50 [27]: 0.249 µM
TGI [27]: 0.935 µM
GI50 [28]: 0.3 µM
TGI [28]: > 100 µM
GI50 [29]: 0.803 µM
TGI [29]: 4.85 µM
GI50 [30]: 0.454 µM
TGI [30]: 6.97 µM
GI50 [31]: 0.396 µM
TGI [31]: 2.46 µM
GI50 [32]: 0.154 µM
TGI [32]: 0.798 µM
GI50 [33]: 0.366 µM
TGI [33]: 15.9 µM
GI50 [34]: 0.729 µM
TGI [34]: > 100 µM
GI50 [35]: 1.57 µM
TGI [35]: > 28.4 µM
GI50 [36]: 0.418 µM
GI50 [37]: 0.376 µM
TGI [37]: 13.2 µM
GI50 [38]: 0.344 µM
TGI [38]: 2.09 µM
GI50 [39]: 1.04 µM
TGI [39]: 4.06 µM
GI50 [40]: 0.557 µM
TGI [40]: > 64.4 µM
GI50 [41]: 0.541 µM
TGI [41]: 2.97 µM
GI50 [42]: 0.106 µM
TGI [42]: 1.36 µM
GI50 [43]: 0.765 µM
TGI [43]: 9.46 µM
GI50 [44]: 0.532 µM
TGI [44]: > 100 µM
GI50 [45]: 0.492 µM
TGI [45]: 2.16 µM
GI50 [46]: 0.594 µM
TGI [46]: 3.51 µM
GI50 [47]: 0.494 µM
TGI [47]: 6.35 µM
GI50 [48]: 0.337 µM
TGI [48]: > 100 µM
GI50 [49]: 0.328 µM
TGI [49]: > 33.8 µM
GI50 [50]: 0.648 µM
TGI [50]: > 100 µM
GI50 [51]: 0.225 µM
TGI [51]: 1.91 µM
GI50 [52]: 1.27 µM
TGI [52]: > 29.7 µM
GI50 [53]: 0.305 µM
GI50 [54]: 0.838 µM
TGI [54]: > 20.7 µM
GI50 [55]: 0.236 µM
TGI [55]: 1.05 µM
GI50 [56]: 1.38 µM
TGI [56]: 5.23 µM

COc1ccc(-c2cc(C(=O)N=Nc3c(O)[nH]c4ccc(Cl)cc34)c3ccccc3n2)cc1
GI50 [1]: 19.8 µM
TGI [1]: 43.7 µM
GI50 [2]: 21 µM
TGI [2]: 36.1 µM
GI50 [3]: 5.56 µM
TGI [3]: 31.9 µM
GI50 [4]: 10.1 µM
TGI [4]: 23.2 µM
GI50 [5]: 22 µM
TGI [5]: 43 µM
GI50 [6]: 11.7 µM
TGI [6]: 26.4 µM
GI50 [7]: 3.32 µM
TGI [7]: > 100 µM
GI50 [8]: 15 µM
TGI [8]: 35.3 µM
GI50 [9]: 15.3 µM
TGI [9]: 29.7 µM
GI50 [57]: 11.4 µM
TGI [57]: 27.1 µM
GI50 [10]: 15 µM
TGI [10]: 31.4 µM
GI50 [11]: 5.3 µM
TGI [11]: 63.7 µM
GI50 [12]: 2.81 µM
TGI [12]: 10.2 µM
GI50 [13]: 9.57 µM
TGI [13]: > 100 µM
GI50 [14]: 3.96 µM
TGI [14]: 25.7 µM
GI50 [15]: 11.6 µM
TGI [15]: 32.9 µM
GI50 [16]: 16.6 µM
TGI [16]: 69.2 µM
GI50 [17]: 4.63 µM
TGI [17]: 31.2 µM
GI50 [18]: 13.1 µM
TGI [18]: 30.1 µM
GI50 [19]: 3.14 µM
TGI [19]: > 100 µM
GI50 [20]: 21.6 µM
TGI [20]: 57.3 µM
GI50 [21]: 3.23 µM
TGI [21]: 13.3 µM
GI50 [22]: 11 µM
TGI [22]: 41.9 µM
GI50 [23]: 14.4 µM
TGI [23]: 28.5 µM
GI50 [24]: 5.32 µM
TGI [24]: 28.2 µM
GI50 [25]: 5.13 µM
TGI [25]: 18.1 µM
GI50 [26]: 14.8 µM
TGI [26]: 30.7 µM
GI50 [27]: 6.78 µM
TGI [27]: 25.9 µM
GI50 [28]: 3.88 µM
TGI [28]: > 100 µM
GI50 [29]: 14.3 µM
TGI [29]: 55.1 µM
GI50 [30]: 6.43 µM
TGI [30]: 30.8 µM
GI50 [31]: 11.5 µM
TGI [31]: 39.7 µM
GI50 [32]: 16.5 µM
TGI [32]: 39.4 µM
GI50 [58]: 12 µM
TGI [58]: 47.3 µM
GI50 [33]: 11.8 µM
TGI [33]: 26.4 µM
GI50 [34]: 13 µM
TGI [34]: 43.3 µM
GI50 [35]: 12.2 µM
TGI [35]: 26.4 µM
GI50 [36]: 10.2 µM
TGI [36]: 35.9 µM
GI50 [37]: 12 µM
TGI [37]: > 100 µM
GI50 [38]: 14.7 µM
TGI [38]: > 100 µM
GI50 [39]: 12.1 µM
TGI [39]: 25.7 µM
GI50 [40]: 16.2 µM
TGI [40]: 37.6 µM
GI50 [41]: 13.7 µM
TGI [41]: 29.4 µM
GI50 [42]: 15.5 µM
TGI [42]: 29.8 µM
GI50 [43]: 19.3 µM
TGI [43]: 35.8 µM
GI50 [44]: 14.7 µM
TGI [44]: 30 µM
GI50 [45]: 15.5 µM
TGI [45]: 30.8 µM
GI50 [46]: 15.8 µM
TGI [46]: 33.1 µM
GI50 [47]: 13.9 µM
TGI [47]: 32 µM
GI50 [48]: 17.4 µM
TGI [48]: 32 µM
GI50 [49]: 12.9 µM
TGI [49]: 27.6 µM
GI50 [50]: 3.09 µM
TGI [50]: 19.4 µM
GI50 [51]: 11.8 µM
TGI [51]: 42.3 µM
GI50 [52]: 23.9 µM
TGI [52]: 42.3 µM
GI50 [53]: 3.57 µM
TGI [53]: 16.2 µM
GI50 [54]: 16.6 µM
TGI [54]: 32.6 µM
GI50 [55]: 14.8 µM
TGI [55]: 30.4 µM
GI50 [56]: 11.5 µM
TGI [56]: 24.1 µM

From PubChem BioAssay (NCI)
